Laboratory results as given in publication PMC6210068 (ACS Omega, 2018).

Experiments:
DOR = DOR (Homo sapiens, UniProt P41143); assay: Radioligand binding at DOR
hDAT = hDAT (Homo sapiens, UniProt Q01959); assay: Radioligand binding at DAT; details: 10 μM; [3H]WIN35428; negative = enhanced radioligand binding
rat kidney TSPO = rat kidney TSPO (Rattus norvegicus, UniProt P16257); assay: Radioligand binding at TSPO; details: for Ki: TSPO, rat TSPO, [3H]PK11195
hA3AR = biological target: T1, hA3AR (Homo sapiens, UniProt P0DMS8); assay: A3AR binding
T1 sequence (P0DMS8 1-318): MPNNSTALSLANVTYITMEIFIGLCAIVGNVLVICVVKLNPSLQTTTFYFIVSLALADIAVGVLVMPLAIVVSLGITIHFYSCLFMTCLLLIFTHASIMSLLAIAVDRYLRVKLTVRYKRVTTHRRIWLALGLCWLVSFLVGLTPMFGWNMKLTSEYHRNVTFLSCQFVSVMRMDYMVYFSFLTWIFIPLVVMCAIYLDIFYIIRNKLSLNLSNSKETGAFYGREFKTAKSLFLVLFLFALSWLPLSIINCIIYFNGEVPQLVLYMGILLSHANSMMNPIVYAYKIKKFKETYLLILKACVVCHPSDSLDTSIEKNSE

KOR = KOR (Homo sapiens, UniProt P41145); assay: biochemical; assay type: binding; details: for Ki: KOR, [3H]U69593, mean ± SEM, N = 2–4
KOR, sequence (P41145 whole entry): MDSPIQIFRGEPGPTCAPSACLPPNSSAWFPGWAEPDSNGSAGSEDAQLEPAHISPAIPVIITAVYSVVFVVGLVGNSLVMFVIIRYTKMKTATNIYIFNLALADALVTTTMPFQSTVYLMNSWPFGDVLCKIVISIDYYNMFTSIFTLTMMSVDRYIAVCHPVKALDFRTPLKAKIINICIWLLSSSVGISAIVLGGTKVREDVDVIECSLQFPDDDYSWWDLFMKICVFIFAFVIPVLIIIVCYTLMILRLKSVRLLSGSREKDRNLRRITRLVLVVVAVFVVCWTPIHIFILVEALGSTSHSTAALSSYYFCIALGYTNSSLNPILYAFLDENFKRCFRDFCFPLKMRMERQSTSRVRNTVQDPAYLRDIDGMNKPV

MOR = MOR (Homo sapiens, UniProt P35372); assay: biochemical; assay type: binding
MOR, sequence (P35372 whole entry): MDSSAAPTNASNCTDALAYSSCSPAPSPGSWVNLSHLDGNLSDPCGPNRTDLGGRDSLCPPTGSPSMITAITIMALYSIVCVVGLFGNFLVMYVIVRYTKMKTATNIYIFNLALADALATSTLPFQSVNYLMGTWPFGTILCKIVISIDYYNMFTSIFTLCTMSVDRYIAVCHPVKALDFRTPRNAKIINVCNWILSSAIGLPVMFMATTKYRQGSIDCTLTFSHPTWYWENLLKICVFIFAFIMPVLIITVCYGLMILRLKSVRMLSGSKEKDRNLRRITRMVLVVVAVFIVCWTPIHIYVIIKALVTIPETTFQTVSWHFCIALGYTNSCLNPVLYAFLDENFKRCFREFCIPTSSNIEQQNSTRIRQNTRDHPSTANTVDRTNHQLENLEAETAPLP

DOR, sequence (P41143 whole entry): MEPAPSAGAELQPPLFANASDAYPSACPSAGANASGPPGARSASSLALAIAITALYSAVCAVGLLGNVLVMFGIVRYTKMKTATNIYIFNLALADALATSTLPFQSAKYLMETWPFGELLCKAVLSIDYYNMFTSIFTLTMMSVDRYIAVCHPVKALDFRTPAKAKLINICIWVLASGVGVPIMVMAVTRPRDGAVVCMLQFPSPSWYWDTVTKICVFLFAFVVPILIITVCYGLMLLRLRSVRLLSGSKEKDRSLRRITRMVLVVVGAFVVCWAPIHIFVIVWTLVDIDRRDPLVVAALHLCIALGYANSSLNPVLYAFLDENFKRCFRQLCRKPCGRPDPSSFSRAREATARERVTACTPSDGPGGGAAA
hDAT, sequence (Q01959 whole entry): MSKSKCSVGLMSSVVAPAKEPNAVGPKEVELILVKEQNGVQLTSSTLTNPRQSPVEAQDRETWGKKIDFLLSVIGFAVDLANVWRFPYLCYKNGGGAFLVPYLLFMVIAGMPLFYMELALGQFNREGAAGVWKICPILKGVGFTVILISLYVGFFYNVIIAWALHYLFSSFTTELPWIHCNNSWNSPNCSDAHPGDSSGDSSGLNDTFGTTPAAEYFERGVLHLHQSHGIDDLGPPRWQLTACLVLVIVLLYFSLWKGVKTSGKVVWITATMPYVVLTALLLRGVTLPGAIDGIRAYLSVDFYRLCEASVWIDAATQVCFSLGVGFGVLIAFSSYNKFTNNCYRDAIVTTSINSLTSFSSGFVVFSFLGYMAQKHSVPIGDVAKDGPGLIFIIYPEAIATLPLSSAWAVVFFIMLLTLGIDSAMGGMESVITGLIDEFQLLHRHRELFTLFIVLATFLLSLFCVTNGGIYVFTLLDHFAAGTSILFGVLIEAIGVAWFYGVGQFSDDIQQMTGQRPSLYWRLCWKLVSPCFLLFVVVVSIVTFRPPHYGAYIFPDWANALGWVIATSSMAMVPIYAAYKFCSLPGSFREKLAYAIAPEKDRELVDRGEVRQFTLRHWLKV
rat kidney TSPO, sequence (P16257 whole entry): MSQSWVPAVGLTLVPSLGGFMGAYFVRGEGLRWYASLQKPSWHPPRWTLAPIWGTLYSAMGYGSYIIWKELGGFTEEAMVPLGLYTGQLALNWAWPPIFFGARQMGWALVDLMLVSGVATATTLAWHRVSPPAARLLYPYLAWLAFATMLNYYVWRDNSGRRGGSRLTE

Compound	DAT, inhibition, % of control at 10 μM (hDAT)	Ki (rat kidney TSPO) [nM]	Ki (KOR) [nM]	DOR, inhibition of radioligand binding at 10 μM (class) (DOR; Table 1)	DOR, inhibition of radioligand binding at 10 μM (class) (DOR; Table 2)	MOR, inhibition of radioligand binding at 10 μM (class) (MOR; Table 2)	also measured
O[C@@H]1[C@H](O)[C@@H]2C[C@@H]2[C@H]1n1cnc2c(NCc3cccc(Cl)c3)nc(C#Cc3ccc(F)c(F)c3)nc21 [compound 3]	16%	–	–	–	–	–	DOR, inhibition of radioligand binding at 10 μM (class) (DOR; Table 4): ^g (<30% inhibition of radioligand binding at 10 μM)
CNC(=O)[C@@]12C[C@@H]1[C@@H](n1cnc3c(NCc4cccc(Cl)c4)nc(Cl)nc31)[C@H](O)[C@@H]2O [compound 5]	3%	–	–	^e (30–50% inhibition of radioligand binding at 10 μM)	–	–	TSPO, inhibition of radioligand binding at 10 μM (class) (rat kidney TSPO; Table 1): ^f (<30% inhibition of radioligand binding at 10 μM)
CNC(=O)[C@@]12C[C@@H]1[C@@H](n1cnc3c(NCc4cccc(Cl)c4)nc(C#Cc4ccccc4Cl)nc31)[C@H](O)[C@@H]2O [compound 8]	50%	~300	–	f (<30% inhibition of radioligand binding at 10 μM)	–	–	–
CNC(=O)[C@@]12C[C@@H]1[C@@H](n1cnc3c(NC)nc(C#Cc4ccc(F)c(F)c4)nc31)[C@H](O)[C@@H]2O [compound 11]	–322%	–	–	^e (30–50% inhibition of radioligand binding at 10 μM)	–	–	TSPO, inhibition of radioligand binding at 10 μM (class) (rat kidney TSPO; Table 1): ^e (30–50% inhibition of radioligand binding at 10 μM)
CNC(=O)[C@@]12C[C@@H]1[C@@H](n1cnc3c(NC)nc(C#Cc4ccccc4)nc31)[C@H](O)[C@@H]2O [compound 12]	–211%	–	–	^e (30–50% inhibition of radioligand binding at 10 μM)	–	–	TSPO, inhibition of radioligand binding at 10 μM (class) (rat kidney TSPO; Table 1): ^e (30–50% inhibition of radioligand binding at 10 μM)
CNC(=O)[C@@]12C[C@@H]1[C@@H](n1cnc3c(NC)nc(C#Cc4ccc(Cl)s4)nc31)[C@H](O)[C@@H]2O [compound 14]	–	684 ± 175	–	^e (30–50% inhibition of radioligand binding at 10 μM)	–	–	–
CNC(=O)[C@@]12C[C@@H]1[C@@H](n1cnc3c(NC)nc(C#Cc4ccc(Br)s4)nc31)[C@H](O)[C@@H]2O [compound 15]	–235%	–	–	^e (30–50% inhibition of radioligand binding at 10 μM)	–	–	TSPO, inhibition of radioligand binding at 10 μM (class) (rat kidney TSPO; Table 1): ^f (<30% inhibition of radioligand binding at 10 μM)
CNC(=O)[C@@]12C[C@@H]1[C@@H](n1cnc3c(NC)cc(C#Cc4ccc(Cl)s4)nc31)[C@H](O)[C@@H]2O [compound 16]	1%	–	–	^e (30–50% inhibition of radioligand binding at 10 μM)	–	–	TSPO, inhibition of radioligand binding at 10 μM (class) (rat kidney TSPO; Table 1): ^e (30–50% inhibition of radioligand binding at 10 μM)
CNC(=O)[C@@]12C[C@@H]1[C@@H](n1ccc3c(NC)ncnc31)[C@H](O)[C@@H]2O [compound 17]	–14%	–	–	^e (30–50% inhibition of radioligand binding at 10 μM)	–	–	TSPO, inhibition of radioligand binding at 10 μM (class) (rat kidney TSPO; Table 1): ^e (30–50% inhibition of radioligand binding at 10 μM); Ki (hA3AR): 498 ± 46 nM
CNc1nc(C#Cc2ccc(Cl)s2)nc2c1ncn2[C@H]1[C@H](O)[C@H](O)[C@]2(C(=O)OC(C)C)C[C@H]12 [compound 31]	<20%	–	~400	–	^d (<30% inhibition of radioligand binding at 10 μM)	^d (<30% inhibition of radioligand binding at 10 μM)	KOR, inhibition of radioligand binding at 10 μM (class) (KOR; Table 2): ^d (<30% inhibition of radioligand binding at 10 μM); TSPO, inhibition of radioligand binding at 10 μM (class) (rat kidney TSPO; Table 2): ^d (<30% inhibition of radioligand binding at 10 μM)
CCCCOC(=O)[C@@]12C[C@@H]1[C@@H](n1cnc3c(NC)nc(C#Cc4ccc(Cl)s4)nc31)[C@H](O)[C@@H]2O [compound 32]	–285%	> 10000	1210 ± 100	–	^d (<30% inhibition of radioligand binding at 10 μM)	^d (<30% inhibition of radioligand binding at 10 μM)	–
CNc1nc(C#Cc2ccc(Cl)s2)nc2c1ncn2[C@H]1[C@H](O)[C@H](O)[C@]2(C(=O)OCCC(C)C)C[C@H]12 [compound 33]	–196 ± 58%	> 10000	1090 ± 320	–	^d (<30% inhibition of radioligand binding at 10 μM)	^d (<30% inhibition of radioligand binding at 10 μM)	–
CNc1nc(C#Cc2ccc(Cl)s2)nc2c1ncn2[C@H]1[C@H](O)[C@H](O)[C@]2(C(=O)OCCC3CCCCC3)C[C@H]12 [compound 34]	<20%	–	> 10000	–	^c (30–50% inhibition of radioligand binding at 10 μM)	^d (<30% inhibition of radioligand binding at 10 μM)	TSPO, inhibition of radioligand binding at 10 μM (class) (rat kidney TSPO; Table 2): ^c (30–50% inhibition of radioligand binding at 10 μM); Ki (hA3AR): 334 ± 132 nM
CNc1nc(C#Cc2ccc(Cl)s2)nc2c1ncn2[C@H]1[C@H](O)[C@H](O)[C@]2(C(=O)OCCc3ccccc3)C[C@H]12 [compound 36]	<20%	–	3670 ± 1640	–	^d (<30% inhibition of radioligand binding at 10 μM)	^d (<30% inhibition of radioligand binding at 10 μM)	TSPO, inhibition of radioligand binding at 10 μM (class) (rat kidney TSPO; Table 2): ^d (<30% inhibition of radioligand binding at 10 μM); Ki (hA3AR): 114 ± 64 nM
O[C@@H]1[C@H](O)[C@@H]2C[C@@H]2[C@H]1n1ccc2c(NC(C3CC3)C3CC3)nc(I)nc21 [compound 58, (1R,2R,3S,4R,5S)-4-(4-((Dicyclopropylmethyl)amino)-2-iodo-7H-pyrrolo[2,3-d]pyrimidin-7-yl)bicyclo[3.1.0]hexane-2,3-diol]	–	–	–	–	–	–	DOR, inhibition of radioligand binding at 10 μM (class) (DOR; Table 5): ^e (<30% inhibition of radioligand binding at 10 μM); KOR, inhibition of radioligand binding at 10 μM (class) (KOR; Table 5): ^e (<30% inhibition of radioligand binding at 10 μM); MOR, inhibition of radioligand binding at 10 μM (class) (MOR; Table 5): ^e (<30% inhibition of radioligand binding at 10 μM); TSPO, inhibition of radioligand binding at 10 μM (class) (rat kidney TSPO; Table 5): ^e (<30% inhibition of radioligand binding at 10 μM); Ki (hA3AR): 5310 ± 1310 nM
Ala2-MePhe4-Glyol5-Enkephalin [compound 99, reference compound]	–	–	–	–	–	–	Kd (MOR; read-out: radioligand Kd, MOR): 1.73 ± 0.14 nM

Continued, in another order:

DAT, inhibition, % of control at 10 μM (hDAT)	Ki (rat kidney TSPO) [nM]	Ki (KOR) [nM]	Compound	DOR, inhibition of radioligand binding at 10 μM (class) (DOR; Table 1)	DOR, inhibition of radioligand binding at 10 μM (class) (DOR; Table 2)	MOR, inhibition of radioligand binding at 10 μM (class) (MOR; Table 2)	also measured
<20%	1090 ± 290	8920 ± 1080	CNc1nc(C#Cc2ccc(Cl)s2)nc2c1ncn2[C@H]1[C@H](O)[C@H](O)[C@]2(C(=O)OCCCc3ccccc3)C[C@H]12 [compound 37]	–	^d (<30% inhibition of radioligand binding at 10 μM)	^d (<30% inhibition of radioligand binding at 10 μM)	Ki (hA3AR): 132 ± 68 nM
–50%	–	–	CNc1nc(C#Cc2ccc(Cl)s2)nc2c1ncn2[C@H]1[C@H](O)[C@H](O)[C@]2(C(=O)O)C[C@H]12 [compound 38]	–	^d (<30% inhibition of radioligand binding at 10 μM)	^d (<30% inhibition of radioligand binding at 10 μM)	KOR, inhibition of radioligand binding at 10 μM (class) (KOR; Table 2): ^d (<30% inhibition of radioligand binding at 10 μM); TSPO, inhibition of radioligand binding at 10 μM (class) (rat kidney TSPO; Table 2): ^d (<30% inhibition of radioligand binding at 10 μM)
–321%	–	–	CNC(=O)[C@H]1O[C@@H](n2cnc3c(NC)nc(C#Cc4ccc(Cl)s4)nc32)[C@H](O)[C@@H]1O [compound 45]	–	–	–	KOR, inhibition of radioligand binding at 10 μM (class) (KOR; Table 3): ^e (<30% inhibition of radioligand binding at 10 μM)
–2%	–	–	O[C@@H]1[C@H](O)[C@@H]2C[C@@H]2[C@H]1n1cnc2c(NCc3cccc(Cl)c3)ncnc21 [compound 48]	–	–	–	DOR, inhibition of radioligand binding at 10 μM (class) (DOR; Table 4): ^g (<30% inhibition of radioligand binding at 10 μM); TSPO, inhibition of radioligand binding at 10 μM (class) (rat kidney TSPO; Table 4): ^g (<30% inhibition of radioligand binding at 10 μM)
–213%	–	–	CNc1nc(C#Cc2ccccc2)nc2c1ncn2[C@H]1[C@H](O)[C@H](O)[C@@H]2C[C@@H]21 [compound 49]	–	–	–	DOR, inhibition of radioligand binding at 10 μM (class) (DOR; Table 4): ^g (<30% inhibition of radioligand binding at 10 μM); TSPO, inhibition of radioligand binding at 10 μM (class) (rat kidney TSPO; Table 4): ^f (30–50% inhibition of radioligand binding at 10 μM)
17%	3570 ± 1820	–	O[C@@H]1[C@H](O)[C@@H]2C[C@@H]2[C@H]1n1cnc2c(NCC(c3ccccc3)c3ccccc3)nc(C#Cc3ccccc3)nc21 [compound 53]	–	–	–	DOR, inhibition of radioligand binding at 10 μM (class) (DOR; Table 4): ^g (<30% inhibition of radioligand binding at 10 μM)
–24%	> 10000	217 ± 100	CCOC(=O)[C@@]12C[C@@H]1[C@@H](n1ccc3c(NCCc4ccccc4)nc(C#Cc4ccccc4)nc31)[C@@H]1OC(C)(C)O[C@@H]12 [compound 82, Ethyl(3aR,3bS,4aS,5R,5aS)-2,2-dimethyl-5-(4-(phenethylamino)-2-(phenylethynyl)-7H-pyrrolo[2,3-d]pyrimidin-7-yl)tetrahydrocyclopropa[3,4]cyclopenta[1,2-d][1,3]dioxole-3b(3aH)-carboxylate]	–	–	–	Ki (DOR): 881 ± 158 nM; Ki (MOR): > 10000 nM; Ki (hA3AR): 905 ± 144 nM
